Like-named read-outs stand apart in the source and are kept apart here.
What was measured:
[1] = test system: ovariectomized white mouse; experiment: Therapeutic effect in mouse model of osteoporosis induced by ovariectomy, trabecular bone volume of the femur by histomorphometry; type: in vivo; details: read-out: Changes in trabecular bone volume (% relative to vehicle control)
Method: The therapeutic effect of each benzamidine derivate of the present invention was evaluated on the ovariectomized white mouse. The substances of Examples 18, 19 and 72 were administered from 4 weeks after operation for 4 weeks and the substances of Examples 27, 33, 36, 47, 53 and 59 were administered from 3 days after operation for 29 days. Thereafter, the changes in the trabecular bone volume (TBV) of the femur were observed via histomorphometry.
Female ddY mice (6-week-old, SLC, Japan) were used after acclimatization for 7 days. Animals to be test were allocated 5 per a plastic cage for mice, and raised in a temperature (20 to 25[…]) and humidity (30 to 35%) controlled room. Feed and water were supplied free to access.
Salts of the benzamidine derivative of the present invention (methanesulfonic acid or HCl) were dissolved or suspended in sterilized, distilled water or 5% DMSO, and administered at a dose of 10 ml per body weight (kg) in the form of a solution. The substances of Examples 18, 19 and 72 were administered from 4 weeks after operation for 4 weeks, and the substances of Examples 27, 33, 36, 47, 53 and 59 were administered from 3 days after operation for 29 days each at 50 mg/kg/day.
After all animals anesthetize using ketamine hydrochloride and xylazine hydrochloride, bilateral ovaries were removed in order to induce estrogen-deficient osteoporosis. After ovariectomy, the […] were closed by routine methods.
The left femur was separated at a final sacrifice day, and fixed in 10% neutral formalin, then decalcified in a decalcifying solution (solution composed of 2.44% formic acid, and 0.5 N sodium hydroxide). The decalcifying solution was exchanges once a day for 5 days. After completion of the decalcification, the femur was embedded in paraffin, sectioned (3 to 4 μM), and stained with a hematoxylin-eosin stain. Observation was made using optical micrography.
The trabecular bone volume was calculated using automated image analysis (analysis Image Processing; SIS, Germany) in the femur using a femur histological specimen prepared in the above manner. The trabecular bone volume was calculated as percentage (%) levels.
All the numeral values were determined and compared to that of the vehicle control used in each experiment, using the calculation by the following Equation 1. Change(%)=[(trabecular bone volume of a−trabecular bone volume of b)/trabecular bone volume of b]×100 [Equation 1]
a: Experiment group, b: Vehicle group

[2] = test system: calvaria; experiment: Cytotoxicity test (MTT), calvaria; type: cell-based; details: 10^−6M, 72 hrs, in comparison with the control group
Method: (§1) The cytotoxic effect of the benzamidine derivative of the present invention was evaluated by carrying out the experiment described below.
(§2) The test substance was diluted in an appropriate solvent at a 10^−2 M concentration. This substance was diluted in an appropriate culture medium for the cells used in the cytotoxicity test to a concentration of […], and loaded into a 96-well plate in 100 μl per well. The cell lines to be used in the cytotoxicity test were plated on a 96-well plate in a dose of 1.0×10^4 cells/1OO μl per well and cultured for 72 hrs. 25 μl of MTT [3-(4,5-dimethyl-2-thiazolyl)-2,5-diphenyl-2H-tetrazolium bromide] dissolved in PBS (2 mg/mL) were added before 4 hrs of the end of culture. After completion of the reaction, the plates were centrifuged, the medium was discarded and 100 μl of DMSO was added to dissolve formazan. Finally, the absorbance of the developed plates was measured at 540 nm. The survival rates of the cells were expressed as % concentration values in comparison with the control group.

[3] = test system: MC3T3; experiment: Cytotoxicity test (MTT), MC3T3; type: cell-based; details: 10^−6M, 72 hrs, in comparison with the control group
Method: as §1, §2

[4] = test system: HOS; experiment: Cytotoxicity test (MTT), HOS; type: cell-based; details: 10^−6M, 72 hrs, in comparison with the control group
Method: as §1, §2

[5] = test system: osteoclast differentiation; experiment: Inhibitory effect on osteoclast differentiation, co-culture of bone marrow cells and osteoblast, TRAP staining; type: cell-based, mouse; details: Mus musculus, Osteoclast, 168 h, read-out: inhibitory effect on osteoclast differentiation(%)
Summary of the method: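 Mouse ddY bone marrow cells (25,000/cm^2) were co-cultured with neonatal ICR calvarial osteoblasts (10,000/cm^2) and compound for 7 days, with 10^−7 M dexamethasone and 10^−8 M vitamin D3, refreshed every 2–3 days. TRAP-positive cells with ≥3 nuclei were counted and expressed as % inhibition versus negative controls.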

[6] = 672 h, ovariectomized ddY mice, femur, 50 mg/kg/day, administered from 4 weeks after operation for 4 weeks
[7] = 1 μm, 7 days co-culture, TRAP-positive osteoclasts with 3 or more nuclei, relative to negative controls
[8] = 696 h, ovariectomized ddY mice, femur, 50 mg/kg/day, administered from 3 days after operation for 29 days

Cc1nc(-c2ccc(OCCCCCOc3ccc(C(=N)NO)cc3)cc2)c(CCN2CCOCC2)s1 [Example 18, N-hydroxy-4-(5-{4-[2-methyl-5-(2-morpholin-4-yl-ethyl)-thiazol-4-yl]-phenoxy}-pentyloxy)-benzamidine]
change in vivo at 50 mg/kg/day ([1]; 672 h): 139% | survival rates of the cells [2]: 97.3% | survival rates of the cells [3]: 94.4% | survival rates of the cells [4]: 99.7% | inhibition at 1 µM [5]: 100%

Cc1nc(-c2ccc(OCCCCCOc3ccc(C(=N)NO)cc3)cc2)c(CCN2CCN(C)CC2)s1 [Example 19, N-hydroxy-4-[5-(4-{2-methyl-5-[2-(4-methyl-piperazin-1-yl)-ethyl]-thiazol-4-yl}-phenoxy)-pentyloxy]-benzamidine]
change in vivo at 50 mg/kg/day [1, 6]: 2.99% | inhibition at 1 µM [5, 7]: 100%

CC(C)c1nc(-c2ccc(OCCCCCOc3ccc(C(=N)NO)cc3)cc2)c(CCN2CCOCC2)s1 [Example 27, N-hydroxy-4-(5-{4-[2-isopropyl-5-(2-morpholin-4-yl-ethyl)-thiazol-4-yl]-phenoxy}-pentyloxy)-benzamidine]
change in vivo at 50 mg/kg/day [1, 8]: 23.6% | inhibition at 1 µM [5, 7]: 81%

N=C(NO)c1ccc(OCCCCCOc2ccc(-c3nc(C4CCCCC4)sc3CCN3CCOCC3)cc2)cc1 [Example 33, N-hydroxy-4-(5-{4-[2-cyclohexyl-5-(2-morpholin-4-yl-ethyl)-thiazol-4-yl]-phenoxy}-pentyloxy)-benzamidine]
change in vivo at 50 mg/kg/day ([1]; 696 h): 26.3% | inhibition at 1 µM [5]: 92%

N=C(NO)c1ccc(OCCCCCOc2ccc(-c3nc(C4CCCCC4)sc3CCN3CCSCC3)cc2)cc1 [Example 36, N-hydroxy-4-(5-{4-[2-cyclohexyl-5-(2-thiomorpholin-4-yl-ethyl)-thiazol-4-yl]-phenoxy}-pentyloxy)-benzamidine]
change in vivo at 50 mg/kg/day ([1]; 696 h): 26.6% | survival rates of the cells [2]: 89.1% | survival rates of the cells [3]: 97.6% | survival rates of the cells [4]: 81.4% | inhibition at 1 µM [5]: 100%

CNc1nc(-c2ccc(OCCCCCOc3ccc(C(=N)NO)cc3)cc2)c(CCN2CCOCC2)s1 [Example 47, N-hydroxy-4-(5-{4-[2-methylamino-5-(2-morpholin-4-yl-ethyl)-thiazol-4-yl]-phenoxy}-pentyloxy)-benzamidine]
change in vivo at 50 mg/kg/day [1, 8]: 5.77% | inhibition at 1 µM [5, 7]: 89.6%

CN(C)c1nc(-c2ccc(OCCCCCOc3ccc(C(=N)NO)cc3)cc2)c(CCN2CCOCC2)s1 [Example 53, N-hydroxy-4-(5-{4-[2-dimethylamino-5-(2-morpholin-4-yl-ethyl)-thiazol-4-yl]-phenoxy}-pentyloxy)-benzamidine]
change in vivo at 50 mg/kg/day [1, 8]: 25.6% | inhibition at 1 µM [5, 7]: 99.3%

N=C(NO)c1ccc(OCCCCCOc2ccc(-c3nc(N4CCOCC4)sc3CCN3CCOCC3)cc2)cc1 [Example 59, N-hydroxy-4-(5-{4-[2-morpholin-4-yl-5-(2-morpholin-4-yl-ethyl)-thiazol-4-yl]-phenoxy}-pentyloxy)-benzamidine]
change in vivo at 50 mg/kg/day [1, 8]: 5.66% | inhibition at 1 µM [5, 7]: 58%

CNC(=O)c1sc(N)nc1-c1ccc(OCCCCCOc2ccc(C(=N)NO)cc2)cc1 [Example 72, N-hydroxy-4-{5-[4-(2-amino-5-methylcarbamoyl-thiazol-4-yl)-phenoxy]-pentyloxy}-benzamidine]
change in vivo at 50 mg/kg/day [1, 6]: 95.6% | inhibition at 1 µM [5, 7]: 97.6%
